Measured values as given in patent publication US5750567A, “Farnesyl transferase inhibitors, preparation thereof and pharmaceutical compositions containing same” (Phone-Poulenc Rorer SA., priority 1995, dated 1998).
Where a name gives a salt, the structure may show the parent alone.

Legend:
[1] = tested on: farnesylation of the Ras protein in THAC line (CCL 39 cells transfected with activated Ha-Ras); test: activity against cells: inhibition of farnesylation of the Ras protein in THAC cells (Western blot); type: cell-based; settings: CCL39, 24 hours at 37° C.
Procedure: The activity against cells can be determined in the following way:
The cell line is the THAC line (CCL 39 cells transfected with activated Ha-Ras) according to K. Seuwen et al., EMBO J., 7(1) 161-168 (1988). The cells are cultured in Petri dishes with a diameter of 6 cm containing a DMEM medium, 5% foetal calf serum and 1% G418.
After culturing for 24 hours, the culture medium is changed (with or without the serum).and the product to be studied is added in solution in dimethylformamide (DMF), in the presence or in the absence of DTT (final concentrations of 0.5% in DMF and 0.1 mM in DTT). After culturing for 24 hours at 37° C., the cells are lysed in 1 cm^3 of lysis buffer (20 mM Tris, HCl, 1% Triton X114, 5 mM MgCl2, 7 mM DTT, 150 mM NaCl, pH=7.4). The lysates are clarified by centrifuging at 4000 revolutions/minute for 10 minutes. […] The radioactivity of the bands corresponding to farnesylated Ras and to non-farnesylated Ras makes it possible to determine the percentage of inhibition of farnesylation of the Ras protein.

[2] = target: T1, human farnesyl transferase (Homo sapiens, UniProt P49354+P49356); test: inhibition of farnesyl transferase (transfer of [3H]farnesyl from [3H]FPP to p21 H-Ras); type: biochemical; settings: p21 H-Ras substrate, 20 minutes at 37° C.; 9 concentrations; read-out: Inhibitory activity IC50
T1 construct: human farnesyl transferase purified from THP1 cell cultures; endogenous in cells; host or cells: THP1 cells (enzyme purified from the cultures)
Procedure: Farnesyl transferase activity is determined by the quantity of [^3 H]farnesyl transferred from [^3 H]farnesyl pyrophosphate [[^3 H]FPP) to the p21 H-Ras protein. The standard reaction mixture is composed, for a final volume of 60 μl, of 50 mM Tris-HCl, 5 mM MgCl2, 5 mM dithiotreitol, 0.2% octyl β-D-glucopyranoside, 200 picomol p21 H-ras, 4.5 picomol [^3 H]FPP (activity 61000 dpm/picomol).
Reaction is initiated by adding approximately 5 ng of human farnesyl transferase purified from THP1 cell cultures. After incubation for 20 minutes at 37° C. in a microtitration plate containing 96 1-cm^3 wells per plate (Titer Plate®, Beckman), the reaction is stopped by adding 0.4 cm^3 of 0.1% SDS in methanol at 0° C. The mixture is then treated with 0.4 cm^3 of 30% trichloroacetic acid (TCA) in methanol. The plates are left in ice for 1 hour. […] The membranes are dried in a microwave oven, then impregnated with scintillation medium by melting of Meltilex® (Pharmacia) under hot air, and lastly counted in cpm in a β-Plate counter® (LKB). […]
The percentage inhibition values are obtained by comparison of the tests with and without inhibitor after deduction of blanks, the IC50 values being measured on the basis of the inhibitions obtained with 9 different concentrations using Enzfitter® or Grafit® software.

SMILES | inhibition at 50 µM ([1]; 50 μM) [%] | IC50 [2] [nM] | inhibition at 10 µM ([1]; 10 μM) [%]
CSCC[C@H](NC(=O)C1CCCc2c(NC[C@@H](N)CS)cccc21)C(=O)O (stereo partly drawn) [Example 2, trifluoroacetate of N-[5-(2(R)-amino-3-mercaptopropylamino)-1,2,3,4-tetrahydronaphthyl-1(R,S)-carbonyl]-(L)-methionine] | 50 | 405 | –
COC(=O)[C@H](CCSC)NC(=O)C1CCCc2c(NC[C@@H](N)CS)cccc21 (stereo partly drawn) [Example 1, trifluoroacetate of the methyl ester of N-[5-(2(R)-amino-3-mercapto-propylamino)-1,2,3,4-tetrahydronaphthyl-1(R,S)-carbonyl]-(L)-methionine] | – | 15 | > 10
